Test results published in US11008314B2, “Compounds and methods for modulating interleukin-2-inducible t-cell kinase” (CORVUS PHARMACEUTICALS, INC., priority 2016, dated 2021).

Legend:
Format in all cases: biochemical
[1] = target: BTK (Homo sapiens (Human), UniProt Q06187); experiment: IC50 against BTK
[2] = target: JAK3 (Homo sapiens (Human), UniProt P52333); experiment: IC50 against JAK3
[3] = target: ITK (Homo sapiens (Human), UniProt Q08881); experiment: IC50 against ITK
[4] = target: TXK (Homo sapiens (Human), UniProt P42681); experiment: IC50 against TXK; settings: for TXK/ITK: ratio of TXK IC50 to ITK IC50
Chain of TXK (P42681 whole entry, species assumed): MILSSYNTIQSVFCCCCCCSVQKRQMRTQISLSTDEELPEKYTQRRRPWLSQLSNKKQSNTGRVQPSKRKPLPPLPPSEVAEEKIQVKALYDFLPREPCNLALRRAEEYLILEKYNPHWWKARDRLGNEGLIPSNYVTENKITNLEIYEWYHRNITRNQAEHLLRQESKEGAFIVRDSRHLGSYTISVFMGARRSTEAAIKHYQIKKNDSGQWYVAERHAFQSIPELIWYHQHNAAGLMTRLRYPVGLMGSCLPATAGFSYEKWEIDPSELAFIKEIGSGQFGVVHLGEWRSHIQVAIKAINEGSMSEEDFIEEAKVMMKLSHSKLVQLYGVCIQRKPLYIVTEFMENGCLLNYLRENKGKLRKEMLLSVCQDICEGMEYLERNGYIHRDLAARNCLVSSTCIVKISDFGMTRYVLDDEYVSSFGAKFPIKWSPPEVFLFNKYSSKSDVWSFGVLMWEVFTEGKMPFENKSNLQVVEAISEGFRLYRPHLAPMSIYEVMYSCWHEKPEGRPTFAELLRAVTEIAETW

Chain of ITK (Q08881 whole entry): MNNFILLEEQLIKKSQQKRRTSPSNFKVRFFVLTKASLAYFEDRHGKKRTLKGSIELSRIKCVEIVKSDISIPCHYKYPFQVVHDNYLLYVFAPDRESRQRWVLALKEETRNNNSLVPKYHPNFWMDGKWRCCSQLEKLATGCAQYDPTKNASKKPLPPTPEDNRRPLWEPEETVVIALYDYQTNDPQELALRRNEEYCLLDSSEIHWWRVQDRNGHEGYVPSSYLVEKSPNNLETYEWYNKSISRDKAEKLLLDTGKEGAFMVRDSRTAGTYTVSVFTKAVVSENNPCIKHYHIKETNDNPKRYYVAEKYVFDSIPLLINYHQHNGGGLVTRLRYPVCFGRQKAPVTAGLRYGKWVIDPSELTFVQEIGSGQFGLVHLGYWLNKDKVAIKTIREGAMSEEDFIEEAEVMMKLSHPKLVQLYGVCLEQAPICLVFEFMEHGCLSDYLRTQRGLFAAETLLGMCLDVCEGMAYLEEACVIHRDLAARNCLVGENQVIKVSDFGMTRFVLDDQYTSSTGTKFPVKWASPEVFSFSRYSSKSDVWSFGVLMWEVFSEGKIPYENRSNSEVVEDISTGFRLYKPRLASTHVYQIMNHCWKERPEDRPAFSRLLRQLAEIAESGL
Chain of JAK3 (P52333 whole entry, species assumed): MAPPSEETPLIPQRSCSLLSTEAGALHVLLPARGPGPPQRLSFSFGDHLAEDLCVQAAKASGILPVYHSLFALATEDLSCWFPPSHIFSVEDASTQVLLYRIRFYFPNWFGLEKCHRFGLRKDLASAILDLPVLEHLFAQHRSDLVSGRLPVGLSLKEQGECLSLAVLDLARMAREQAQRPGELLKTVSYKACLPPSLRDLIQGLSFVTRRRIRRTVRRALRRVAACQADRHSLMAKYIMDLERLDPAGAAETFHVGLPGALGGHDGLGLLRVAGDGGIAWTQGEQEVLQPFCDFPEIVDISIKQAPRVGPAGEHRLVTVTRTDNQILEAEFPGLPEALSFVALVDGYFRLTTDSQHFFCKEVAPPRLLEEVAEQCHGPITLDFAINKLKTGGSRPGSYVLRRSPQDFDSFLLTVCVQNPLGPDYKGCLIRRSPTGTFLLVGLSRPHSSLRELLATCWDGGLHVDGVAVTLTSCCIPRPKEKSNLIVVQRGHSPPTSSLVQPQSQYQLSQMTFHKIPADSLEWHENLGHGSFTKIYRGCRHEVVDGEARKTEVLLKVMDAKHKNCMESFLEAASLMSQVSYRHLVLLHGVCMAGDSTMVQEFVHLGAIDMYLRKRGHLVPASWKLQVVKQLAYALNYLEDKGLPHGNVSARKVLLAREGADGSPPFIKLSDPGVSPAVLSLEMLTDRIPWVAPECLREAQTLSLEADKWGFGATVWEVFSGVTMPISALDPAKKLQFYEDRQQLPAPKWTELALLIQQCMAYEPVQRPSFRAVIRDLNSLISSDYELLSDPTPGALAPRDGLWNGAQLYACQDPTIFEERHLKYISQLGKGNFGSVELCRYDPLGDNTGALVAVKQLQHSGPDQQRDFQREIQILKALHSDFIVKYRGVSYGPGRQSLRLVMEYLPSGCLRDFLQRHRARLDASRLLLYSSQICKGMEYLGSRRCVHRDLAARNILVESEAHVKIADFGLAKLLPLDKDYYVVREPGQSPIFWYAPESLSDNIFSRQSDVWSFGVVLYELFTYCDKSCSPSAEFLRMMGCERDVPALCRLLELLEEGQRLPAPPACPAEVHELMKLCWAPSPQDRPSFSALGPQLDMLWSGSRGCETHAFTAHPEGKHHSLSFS
Chain of BTK (Q06187 whole entry, species assumed): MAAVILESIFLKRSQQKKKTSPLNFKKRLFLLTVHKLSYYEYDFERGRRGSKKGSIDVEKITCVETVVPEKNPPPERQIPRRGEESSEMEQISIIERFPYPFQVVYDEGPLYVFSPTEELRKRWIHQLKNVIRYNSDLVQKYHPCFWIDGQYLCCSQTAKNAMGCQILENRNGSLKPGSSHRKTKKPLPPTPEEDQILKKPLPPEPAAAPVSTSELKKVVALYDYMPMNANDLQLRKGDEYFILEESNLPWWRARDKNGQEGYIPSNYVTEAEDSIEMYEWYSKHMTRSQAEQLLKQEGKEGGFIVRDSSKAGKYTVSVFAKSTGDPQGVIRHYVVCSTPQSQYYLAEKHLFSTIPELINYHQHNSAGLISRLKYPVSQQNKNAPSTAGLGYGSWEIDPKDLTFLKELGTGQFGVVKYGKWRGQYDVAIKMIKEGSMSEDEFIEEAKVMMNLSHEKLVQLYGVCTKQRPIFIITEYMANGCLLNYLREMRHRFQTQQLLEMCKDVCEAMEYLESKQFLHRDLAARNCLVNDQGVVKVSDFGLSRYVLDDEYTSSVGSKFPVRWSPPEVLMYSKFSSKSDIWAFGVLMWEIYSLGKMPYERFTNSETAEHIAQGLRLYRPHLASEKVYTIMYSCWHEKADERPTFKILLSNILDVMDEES

| SMILES | IC50 [1] | IC50 [2] | IC50 [3] | IC50 [4] | TXK/ITK [4] |
| --- | --- | --- | --- | --- | --- |
| C=CC(=O)N1CCN(C(=O)c2cc(Sc3cnc(NC(C)=O)s3)c(C)cc2OC)CC1 [Compound 2] | 100 to 1000 nM | 100 to 1000 nM | < 10 nM | 100 to 1000 nM | 19.869 |
| COc1cc(C)c(Sc2cnc(NC(=O)C3CC3)s2)cc1C(=O)N1CCN(C(=O)/C=C/CN(C)C)CC1 [Compound 3] | 1000 to 10000 nM | ≥ 10000 nM | 10 to 100 nM | 100 to 1000 nM | 5.162 |
| C=CC(=O)N1CCN(C(=O)c2cccc(Cc3cnc(NC(=O)C4CC4)s3)c2)CC1 [Compound 4] | 100 to 1000 nM | 100 to 1000 nM | 10 to 100 nM | 10 to 100 nM | 0.3296 |
| C=CC(=O)N1CCN(C(=O)c2cc(Sc3cnc(NC(C)=O)s3)c(C)cc2OC)C(C)(C)C1 [Compound 5] | 10 to 100 nM | 100 to 1000 nM | < 10 nM | < 10 nM | 1.9721 |
| C=CC(=O)N1CCN(C(=O)c2cc(Sc3cnc(NC(C)=O)s3)c(C)cc2OC)CC1(C)C [Compound 6] | 1000 to 10000 nM | 1000 to 10000 nM | 10 to 100 nM | 100 to 1000 nM | 5.9566 |
| C=CC(=O)N1C[C@H]2CC[C@@H](C1)N2C(=O)c1cc(Sc2cnc(NC(C)=O)s2)c(C)cc1OC [Compound 7] | 10 to 100 nM | 10 to 100 nM | < 10 nM | 10 to 100 nM | 11.993 |
| C=CC(=O)N1[C@@H]2CC[C@H]1CN(C(=O)c1cc(Sc3cnc(NC(C)=O)s3)c(C)cc1OC)C2 [Compound 8] | 10 to 100 nM | 100 to 1000 nM | < 10 nM | 10 to 100 nM | 11.265 |
| C=CC(=O)N1CCN(C(=O)c2cc(Sc3cnc(NC(C)=O)s3)c(C)cc2OC)[C@@H](C)C1 [Compound 9] | 100 to 1000 nM | 100 to 1000 nM | < 10 nM | 10 to 100 nM | 14.236 |
| C=CC(=O)N1CCN(C(=O)c2cc(Sc3cnc(NC(C)=O)s3)c(C)cc2OC)[C@H](C)C1 [Compound 10] | 100 to 1000 nM | 1000 to 10000 nM | 10 to 100 nM | 100 to 1000 nM | 8.0758 |
| C=CC(=O)N1CCN(C(=O)c2cc(Sc3cnc(NC(C)=O)s3)c(C)cc2OC)C[C@H]1C [Compound 11] | 1000 to 10000 nM | 1000 to 10000 nM | < 10 nM | 100 to 1000 nM | 25.051 |
| C=CC(=O)N1CCN(C(=O)c2cc(Sc3cnc(NC(C)=O)s3)c(C)cc2OC)C[C@@H]1C [Compound 12] | 100 to 1000 nM | 100 to 1000 nM | 10 to 100 nM | 100 to 1000 nM | 14.784 |
| C=C(CN(C)C)C(=O)N1CCN(C(=O)c2cc(Sc3cnc(NC(=O)C4CC4)s3)c(C)cc2OC)CC1 [Compound 13] | 1000 to 10000 nM | 1000 to 10000 nM | 10 to 100 nM | 100 to 1000 nM | 22.987 |
| C=CC(=O)N1CCN(C(=O)c2cc(Sc3cnc(NC(=O)c4cccc(CN(C)C)c4)s3)c(C)cc2OC)CC1 [Compound 14] | 100 to 1000 nM | 1000 to 10000 nM | < 10 nM | 100 to 1000 nM | 79.163 |
| C=CC(=O)N1CCN(C(=O)c2cc(Sc3cnc(NC(=O)C4CC4)s3)c(C)cc2OC)C(C)(C)C1 [Compound 15] | < 10 nM | 10 to 100 nM | < 10 nM | < 10 nM | 1.1111 |
| C=CC(=O)N1CCN(C(=O)c2cc(Sc3cnc(NC(=O)C4CC4)s3)c(C)cc2OC)CC1(C)C [Compound 16] | 100 to 1000 nM | 100 to 1000 nM | 10 to 100 nM | 10 to 100 nM | 4.9287 |
| C=CC(=O)N1C[C@H]2CC[C@@H](C1)N2C(=O)c1cc(Sc2cnc(NC(=O)C3CC3)s2)c(C)cc1OC [Compound 17] | < 10 nM | 10 to 100 nM | < 10 nM | < 10 nM | 5.4235 |
| C=CC(=O)N1[C@@H]2CC[C@H]1CN(C(=O)c1cc(Sc3cnc(NC(=O)C4CC4)s3)c(C)cc1OC)C2 [Compound 18] | 10 to 100 nM | 10 to 100 nM | < 10 nM | < 10 nM | 2.8993 |
| C=CC(=O)N1CCN(C(=O)c2cc(Sc3cnc(NC(=O)C4CC4)s3)c(C)cc2OC)[C@@H](C)C1 [Compound 19] | 10 to 100 nM | 100 to 1000 nM | < 10 nM | < 10 nM | 6.5873 |
| C=CC(=O)N1CCN(C(=O)c2cc(Sc3cnc(NC(=O)C4CC4)s3)c(C)cc2OC)[C@H](C)C1 [Compound 20] | 100 to 1000 nM | 100 to 1000 nM | < 10 nM | 10 to 100 nM | 2.2433 |
| C=CC(=O)N1CCN(C(=O)c2cc(Sc3cnc(NC(=O)C4CC4)s3)c(C)cc2OC)C[C@@H]1C [Compound 22] | 100 to 1000 nM | 100 to 1000 nM | < 10 nM | 10 to 100 nM | 6.7674 |

| SMILES | IC50 [1] | IC50 [2] | IC50 [3] | IC50 [4] | TXK/ITK [4] |
| --- | --- | --- | --- | --- | --- |
| C=CC(=O)N1C[C@@H]2C[C@H]1CN2C(=O)c1cc(Sc2cnc(NC(=O)C3CC3)s2)c(C)cc1OC [Compound 23] | < 10 nM | 10 to 100 nM | < 10 nM | < 10 nM | 1.4139 |
| C=CC(=O)N1C[C@@H]2C[C@H]1CN2C(=O)c1cc(Sc2cnc(NC(C)=O)s2)c(C)cc1OC [Compound 24] | 10 to 100 nM | 100 to 1000 nM | < 10 nM | 10 to 100 nM | 6.6876 |
| C=CC(=O)N1CCCN(C(=O)c2cc(Sc3cnc(NC(=O)C4CC4)s3)c(C)cc2OC)CC1 [Compound 25] | 100 to 1000 nM | 100 to 1000 nM | < 10 nM | 10 to 100 nM | 20.879 |
| C=CC(=O)N1CCCN(C(=O)c2cc(Sc3cnc(NC(C)=O)s3)c(C)cc2OC)CC1 [Compound 26] | 1000 to 10000 nM | 1000 to 10000 nM | 10 to 100 nM | 100 to 1000 nM | 26.486 |
| C=CC(=O)N1CC[C@@H](N(C)C(=O)c2cc(Sc3cnc(NC(=O)C4CC4)s3)c(C)cc2OC)C1 [Compound 27] | < 10 nM | < 10 nM | < 10 nM | < 10 nM | 2.0165 |
| C=CC(=O)N1CC[C@@H](N(C)C(=O)c2cc(Sc3cnc(NC(C)=O)s3)c(C)cc2OC)C1 [Compound 28] | < 10 nM | 10 to 100 nM | < 10 nM | 10 to 100 nM | 5.5925 |
| C=CC(=O)N1CC[C@H](N(C)C(=O)c2cc(Sc3cnc(NC(=O)C4CC4)s3)c(C)cc2OC)C1 [Compound 29] | 100 to 1000 nM | 100 to 1000 nM | < 10 nM | < 10 nM | 2.1804 |
| C=CC(=O)N1CC[C@H](N(C)C(=O)c2cc(Sc3cnc(NC(C)=O)s3)c(C)cc2OC)C1 [Compound 30] | 100 to 1000 nM | 1000 to 10000 nM | 10 to 100 nM | 10 to 100 nM | 3.101 |
| C=CC(=O)N1CCN(C(=O)c2cc(Sc3cnc(NC(=O)C4CCCC4)s3)c(C)cc2OC)CC1 [Compound 31] | 1000 to 10000 nM | 1000 to 10000 nM | 10 to 100 nM | 100 to 1000 nM | 19.291 |
| C=CC(=O)N1CCN(C(=O)c2cc(Sc3cnc(NC(=O)c4cccc(CN(C)C)c4)s3)c(C)cc2OC)C[C@H]1C [Compound 32] | 100 to 1000 nM | 1000 to 10000 nM | < 10 nM | 100 to 1000 nM | 81.114 |
| C=CC(=O)N1CCN(C(=O)c2cc(Sc3cnc(NC(=O)c4ccc(CN(C)C)cc4)s3)c(C)cc2OC)CC1 [Compound 34] | 10 to 100 nM | 100 to 1000 nM | < 10 nM | 10 to 100 nM | 33.121 |
| C=CC(=O)N1CCCN(C(=O)c2cc(Sc3cnc(NC(=O)CN(C)C)s3)c(C)cc2OC)CC1 [Compound 35] | ≥ 10000 nM | ≥ 10000 nM | 100 to 1000 nM | ≥ 10000 nM | 48.433 |
| C=CC(=O)N1CCCN(C(=O)c2cc(Sc3cnc(NC(=O)C(C)C)s3)c(C)cc2OC)CC1 [Compound 36] | 1000 to 10000 nM | ≥ 10000 nM | 10 to 100 nM | 1000 to 10000 nM | 72.34 |
| C=CC(=O)N1CCCN(C(=O)c2cc(Sc3cnc(NC(=O)C4CCN(C)CC4)s3)c(C)cc2OC)CC1 [Compound 37] | ≥ 10000 nM | ≥ 10000 nM | 100 to 1000 nM | ≥ 10000 nM | 46.119 |
| CC#CC(=O)N1CCCN(C(=O)c2cc(Sc3cnc(NC(=O)c4cccc(CN(C)C)c4)s3)c(C)cc2OC)CC1 [Compound 38] | 1000 to 10000 nM | ≥ 10000 nM | 10 to 100 nM | 1000 to 10000 nM | 28.189 |
| C=C(C)C(=O)N1CCCN(C(=O)c2cc(Sc3cnc(NC(=O)c4cccc(CN(C)C)c4)s3)c(C)cc2OC)CC1 [Compound 39] | ≥ 10000 nM | ≥ 10000 nM | 100 to 1000 nM | 1000 to 10000 nM | 1.5 |
| C=CC(=O)N1CCN(C(=O)c2cc(Sc3cnc(NC(=O)c4ccc(N5CCN(C(=O)OC(C)(C)C)CC5)cc4)s3)c(C)cc2OC)CC1 [Compound 40] | 100 to 1000 nM | 100 to 1000 nM | < 10 nM | 10 to 100 nM | 14.491 |
| C=CC(=O)N1C[C@H]2CN(C(=O)c3cc(Sc4cnc(NC(=O)C5CC5)s4)c(C)cc3OC)C[C@H]21 [Compound 52] | – | 1000 to 10000 nM | < 10 nM | 10 to 100 nM | – |
| C=CC(=O)N1CCCN(C(=O)c2cc(Sc3cnc(NC(=O)C4CC4)s3)c(C)cc2OC)C[C@@H]1C [Compound 71] | 1000 to 10000 nM | 1000 to 10000 nM | – | 100 to 1000 nM | – |
| C=CC(=O)N1CCN(C(=O)c2cc(Sc3cnc(NC(=O)C4CC4)s3)c(C)cc2C)C[C@H]1C [Compound 75] | – | 100 to 1000 nM | < 10 nM | 10 to 100 nM | – |
